# From patent publication US20250230193A1, “CYCLIC COMPOUND HAVING SELECTIVE KRAS INHIBITORY EFFECT ON HRAS AND NRAS” (CHUGAI SEIYAKU KABUSHIKI KAISHA, priority 2022, published 2025)
# Where a SMILES comes first, the peptide text is derived from it. Bridges are numbered along the chain shown (N, C = ends). [ ]: non-standard residue; d: D form. hPhe(3-Cl-4-CF3) = N[C@@H](CCc1ccc(C(F)(F)F)c(Cl)c1)C(=O)O; NPrPhe(4-CF3) = CCCN[C@@H](Cc1ccc(C(F)(F)F)cc1)C(=O)O; NMeGly(cPent) = CN[C@H](C(=O)O)C1CCCC1; Pro(4,4-F2) = O=C(O)[C@@H]1CC(F)(F)CN1; Hyp = O=C(O)[C@@H]1C[C@@H](O)CN1; NMeL = CN[C@@H](CC(C)C)C(=O)O; Ac5c = NC1(C(=O)O)CCCC1; Aze = O=C(O)[C@@H]1CCN1; Ac4c = NC1(C(=O)O)CCC1; NEtG = CCNCC(=O)O; Sar = CNCC(=O)O
# What was measured:
# [1] = target: GDP-bound NRAS wild-type protein (Homo sapiens, UniProt P01111); experiment: Binding to NRAS by surface plasmon resonance (SPR), Single Cycle Kinetics; conditions: KD ratio NRAS/KRAS, SPR
# [2] = target: GDP-bound HRAS wild-type protein (Homo sapiens, UniProt P01112); experiment: Binding to HRAS by surface plasmon resonance (SPR), Single Cycle Kinetics; conditions: KD ratio HRAS/KRAS, SPR
# Chain of GDP-bound HRAS wild-type protein (P01112 whole entry): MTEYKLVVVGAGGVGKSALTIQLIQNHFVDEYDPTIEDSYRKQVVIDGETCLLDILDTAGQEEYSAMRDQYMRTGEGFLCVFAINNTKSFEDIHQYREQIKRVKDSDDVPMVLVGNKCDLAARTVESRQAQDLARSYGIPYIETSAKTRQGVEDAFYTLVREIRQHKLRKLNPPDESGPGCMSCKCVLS
# Chain of GDP-bound NRAS wild-type protein (P01111 whole entry): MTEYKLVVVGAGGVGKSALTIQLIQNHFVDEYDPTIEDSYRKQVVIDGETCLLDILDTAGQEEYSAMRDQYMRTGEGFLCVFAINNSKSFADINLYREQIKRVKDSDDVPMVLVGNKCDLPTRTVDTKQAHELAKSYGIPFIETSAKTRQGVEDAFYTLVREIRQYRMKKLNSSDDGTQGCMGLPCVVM
SMILES,NRAS/KRAS (ratio of KD for GDP-bound NRAS wild-type to KD for KRAS) [1],HRAS/KRAS (ratio of KD for GDP-bound HRAS wild-type to KD for KRAS) [2]
CCCN1C(=O)CN(C)C(=O)CNC(=O)[C@H]([C@@H](C)CC)NC(=O)[C@H](CC(C)C)N(C)C(=O)C[C@@H](C(=O)N(C)C)NC(=O)[C@H](C2CCCC2)N(C)C(=O)C2(CCC2)NC(=O)[C@@H]2C[C@@H](OCC)CN2C(=O)[C@H](CCc2ccc(C(F)(F)F)c(Cl)c2)NC(=O)CN(C)C(=O)[C@@H]1Cc1ccc(C(F)(F)F)cc1 [PP0366] ([NMeL]IG[Sar][NPrPhe(4-CF3)][Sar][hPhe(3-Cl-4-CF3)][Hyp](Et)[Ac4c][NMeGly(cPent)]D-NMe2; lactam N-11),B (a compound having 3 or more and less than 10 is denoted as B),B (a compound having 3 or more and less than 10 is denoted as B)
CCCN1C(=O)CN(C)C(=O)CN(CC)C(=O)[C@H]([C@@H](C)CC)NC(=O)[C@H](CC(C)C)N(C)C(=O)C[C@@H](C(=O)N(C)C)NC(=O)[C@H](C2CCCC2)N(C)C(=O)C2(CCCC2)NC(=O)[C@@H]2CCCN2C(=O)[C@H](CCc2ccc(C(F)(F)F)c(Cl)c2)NC(=O)CN(C)C(=O)[C@@H]1Cc1ccc(C(F)(F)F)cc1 [PP0367] ([NMeL]I[NEtG][Sar][NPrPhe(4-CF3)][Sar][hPhe(3-Cl-4-CF3)]P[Ac5c][NMeGly(cPent)]D-NMe2; lactam N-11),B (a compound having 3 or more and less than 10 is denoted as B),B (a compound having 3 or more and less than 10 is denoted as B)
CCCN1C(=O)CN(C)C(=O)CN(CC)C(=O)[C@H]([C@@H](C)CC)NC(=O)[C@H](CC(C)C)N(C)C(=O)C[C@@H](C(=O)N(C)C)NC(=O)[C@H](C2CCCC2)N(C)C(=O)C2(CCC2)NC(=O)[C@@H]2CCCN2C(=O)[C@H](CCc2ccc(C(F)(F)F)c(Cl)c2)NC(=O)CN(C)C(=O)[C@@H]1Cc1ccc(C(F)(F)F)cc1 [PP0368] ([NMeL]I[NEtG][Sar][NPrPhe(4-CF3)][Sar][hPhe(3-Cl-4-CF3)]P[Ac4c][NMeGly(cPent)]D-NMe2; lactam N-11),B (a compound having 3 or more and less than 10 is denoted as B),B (a compound having 3 or more and less than 10 is denoted as B)
"CCCN1C(=O)CN(C)C(=O)CN(CC)C(=O)[C@H]([C@@H](C)CC)NC(=O)[C@H](CC(C)C)N(C)C(=O)C[C@@H](C(=O)N(C)C)NC(=O)[C@H](C2CCCC2)N(C)C(=O)C2(CCCC2)NC(=O)[C@@H]2CC(F)(F)CN2C(=O)[C@H](CCc2ccc(C(F)(F)F)c(Cl)c2)NC(=O)CN(C)C(=O)[C@@H]1Cc1ccc(C(F)(F)F)cc1 [PP0369] ([NMeL]I[NEtG][Sar][NPrPhe(4-CF3)][Sar][hPhe(3-Cl-4-CF3)][Pro(4,4-F2)][Ac5c][NMeGly(cPent)]D-NMe2; lactam N-11)",B (a compound having 3 or more and less than 10 is denoted as B),C (A compound having a KD ratio of 0.1 or more and less than 3 is denoted as C)
"CCCN1C(=O)CN(C)C(=O)CN(CC)C(=O)[C@H]([C@@H](C)CC)NC(=O)[C@H](CC(C)C)N(C)C(=O)C[C@@H](C(=O)N(C)C)NC(=O)[C@H](C2CCCC2)N(C)C(=O)C2(CCC2)NC(=O)[C@@H]2CC(F)(F)CN2C(=O)[C@H](CCc2ccc(C(F)(F)F)c(Cl)c2)NC(=O)CN(C)C(=O)[C@@H]1Cc1ccc(C(F)(F)F)cc1 [PP0370] ([NMeL]I[NEtG][Sar][NPrPhe(4-CF3)][Sar][hPhe(3-Cl-4-CF3)][Pro(4,4-F2)][Ac4c][NMeGly(cPent)]D-NMe2; lactam N-11)",B (a compound having 3 or more and less than 10 is denoted as B),C (A compound having a KD ratio of 0.1 or more and less than 3 is denoted as C)
CCCN1C(=O)CN(C)C(=O)CN(CC)C(=O)[C@H]([C@@H](C)CC)NC(=O)[C@H](CC(C)C)N(C)C(=O)C[C@@H](C(=O)N(C)C)NC(=O)[C@H](C2CCCC2)N(C)C(=O)C2(CCCC2)NC(=O)[C@@H]2C[C@@H](OCC)CN2C(=O)[C@H](CCc2ccc(C(F)(F)F)c(Cl)c2)NC(=O)CN(C)C(=O)[C@@H]1Cc1ccc(C(F)(F)F)cc1 [PP0371] ([NMeL]I[NEtG][Sar][NPrPhe(4-CF3)][Sar][hPhe(3-Cl-4-CF3)][Hyp](Et)[Ac5c][NMeGly(cPent)]D-NMe2; lactam N-11),B (a compound having 3 or more and less than 10 is denoted as B),C (A compound having a KD ratio of 0.1 or more and less than 3 is denoted as C)
CCCN1C(=O)CN(C)C(=O)CN(CC)C(=O)[C@H]([C@@H](C)CC)NC(=O)[C@H](CC(C)C)N(C)C(=O)C[C@@H](C(=O)N(C)C)NC(=O)[C@H](C2CCCC2)N(C)C(=O)C2(CCC2)NC(=O)[C@@H]2C[C@@H](OCC)CN2C(=O)[C@H](CCc2ccc(C(F)(F)F)c(Cl)c2)NC(=O)CN(C)C(=O)[C@@H]1Cc1ccc(C(F)(F)F)cc1 [PP0372] ([NMeL]I[NEtG][Sar][NPrPhe(4-CF3)][Sar][hPhe(3-Cl-4-CF3)][Hyp](Et)[Ac4c][NMeGly(cPent)]D-NMe2; lactam N-11),B (a compound having 3 or more and less than 10 is denoted as B),B (a compound having 3 or more and less than 10 is denoted as B)
CCCN1C(=O)CN(C)C(=O)[C@@H]2CCN2C(=O)[C@H]([C@@H](C)CC)NC(=O)[C@H](CC(C)C)N(C)C(=O)C[C@@H](C(=O)N(C)C)NC(=O)[C@H](C2CCCC2)N(C)C(=O)C2(CCCC2)NC(=O)[C@@H]2CCCN2C(=O)[C@H](CCc2ccc(C(F)(F)F)c(Cl)c2)NC(=O)CN(C)C(=O)[C@@H]1Cc1ccc(C(F)(F)F)cc1 [PP0373] ([NMeL]I[Aze][Sar][NPrPhe(4-CF3)][Sar][hPhe(3-Cl-4-CF3)]P[Ac5c][NMeGly(cPent)]D-NMe2; lactam N-11),B (a compound having 3 or more and less than 10 is denoted as B),B (a compound having 3 or more and less than 10 is denoted as B)
CCCN1C(=O)CN(C)C(=O)[C@@H]2CCN2C(=O)[C@H]([C@@H](C)CC)NC(=O)[C@H](CC(C)C)N(C)C(=O)C[C@@H](C(=O)N(C)C)NC(=O)[C@H](C2CCCC2)N(C)C(=O)C2(CCC2)NC(=O)[C@@H]2CCCN2C(=O)[C@H](CCc2ccc(C(F)(F)F)c(Cl)c2)NC(=O)CN(C)C(=O)[C@@H]1Cc1ccc(C(F)(F)F)cc1 [PP0374] ([NMeL]I[Aze][Sar][NPrPhe(4-CF3)][Sar][hPhe(3-Cl-4-CF3)]P[Ac4c][NMeGly(cPent)]D-NMe2; lactam N-11),B (a compound having 3 or more and less than 10 is denoted as B),B (a compound having 3 or more and less than 10 is denoted as B)
"CCCN1C(=O)CN(C)C(=O)[C@@H]2CCN2C(=O)[C@H]([C@@H](C)CC)NC(=O)[C@H](CC(C)C)N(C)C(=O)C[C@@H](C(=O)N(C)C)NC(=O)[C@H](C2CCCC2)N(C)C(=O)C2(CCCC2)NC(=O)[C@@H]2CC(F)(F)CN2C(=O)[C@H](CCc2ccc(C(F)(F)F)c(Cl)c2)NC(=O)CN(C)C(=O)[C@@H]1Cc1ccc(C(F)(F)F)cc1 [PP0375] ([NMeL]I[Aze][Sar][NPrPhe(4-CF3)][Sar][hPhe(3-Cl-4-CF3)][Pro(4,4-F2)][Ac5c][NMeGly(cPent)]D-NMe2; lactam N-11)",B (a compound having 3 or more and less than 10 is denoted as B),B (a compound having 3 or more and less than 10 is denoted as B)
"CCCN1C(=O)CN(C)C(=O)[C@@H]2CCN2C(=O)[C@H]([C@@H](C)CC)NC(=O)[C@H](CC(C)C)N(C)C(=O)C[C@@H](C(=O)N(C)C)NC(=O)[C@H](C2CCCC2)N(C)C(=O)C2(CCC2)NC(=O)[C@@H]2CC(F)(F)CN2C(=O)[C@H](CCc2ccc(C(F)(F)F)c(Cl)c2)NC(=O)CN(C)C(=O)[C@@H]1Cc1ccc(C(F)(F)F)cc1 [PP0376] ([NMeL]I[Aze][Sar][NPrPhe(4-CF3)][Sar][hPhe(3-Cl-4-CF3)][Pro(4,4-F2)][Ac4c][NMeGly(cPent)]D-NMe2; lactam N-11)",B (a compound having 3 or more and less than 10 is denoted as B),B (a compound having 3 or more and less than 10 is denoted as B)
CCCN1C(=O)CN(C)C(=O)[C@@H]2CCN2C(=O)[C@H]([C@@H](C)CC)NC(=O)[C@H](CC(C)C)N(C)C(=O)C[C@@H](C(=O)N(C)C)NC(=O)[C@H](C2CCCC2)N(C)C(=O)C2(CCCC2)NC(=O)[C@@H]2C[C@@H](OCC)CN2C(=O)[C@H](CCc2ccc(C(F)(F)F)c(Cl)c2)NC(=O)CN(C)C(=O)[C@@H]1Cc1ccc(C(F)(F)F)cc1 [PP0377] ([NMeL]I[Aze][Sar][NPrPhe(4-CF3)][Sar][hPhe(3-Cl-4-CF3)][Hyp](Et)[Ac5c][NMeGly(cPent)]D-NMe2; lactam N-11),B (a compound having 3 or more and less than 10 is denoted as B),C (A compound having a KD ratio of 0.1 or more and less than 3 is denoted as C)
CCCN1C(=O)CN(C)C(=O)[C@@H]2CCN2C(=O)[C@H]([C@@H](C)CC)NC(=O)[C@H](CC(C)C)N(C)C(=O)C[C@@H](C(=O)N(C)C)NC(=O)[C@H](C2CCCC2)N(C)C(=O)C2(CCC2)NC(=O)[C@@H]2C[C@@H](OCC)CN2C(=O)[C@H](CCc2ccc(C(F)(F)F)c(Cl)c2)NC(=O)CN(C)C(=O)[C@@H]1Cc1ccc(C(F)(F)F)cc1 [PP0378] ([NMeL]I[Aze][Sar][NPrPhe(4-CF3)][Sar][hPhe(3-Cl-4-CF3)][Hyp](Et)[Ac4c][NMeGly(cPent)]D-NMe2; lactam N-11),B (a compound having 3 or more and less than 10 is denoted as B),B (a compound having 3 or more and less than 10 is denoted as B)
